Reference: US9682061B2, “Methods of treating bacterial infections using oritavancin” (THE MEDICINES COMPANY, priority 2009, dated 2017)
≈ marks a conversion by molar mass, not a printed value. Where two headings read alike, the source gives them in different places.

Assays:
S. aureus ATCC 29213 = test: Broth microdilution MIC with arithmetic drug dilutions; format: cell-based, Staphylococcus aureus; conditions: for MIC: Staphylococcus aureus
Protocol: (§1) Pooled sera from humans, mice and rats were obtained from Equitech-Bio (Kerrville, Tex.); pooled serum from beagle dogs was from Bioreclamation (Liverpool, N.Y.). ULTRA was prepared using Centricon Plus-50 ultrafilters (Millipore, Billerica, Mass.), whose molecular weight cutoff (50 kDa) excludes albumin. ORI stock solutions were prepared following CLSI M100-818 (Clinical and Laboratory Standards Institute. 2008. CLSI document M100-S18). Staphylococcus aureus ATCC 29213 was used as the test isolate at a final inoculum of ˜5×10^5 CFU/mL in both MIC and AUIC studies.
Arithmetic MICs: Broth microdilution MIC assays with Staphylococcus aureus ATCC 29213 were based on CLSI guidelines (Clinical and Laboratory Standards Institute, 2009, CLSI document M7-A7). Growth media were 95% serum:5% CAMHB and 95% serum ultrafiltrate:5% CAMHB. Arithmetic dilutions of oritavancin and comparators were used to increase precision of minimum inhibitory concentration (MIC) values relative to doubling dilutions. Percent binding in serum was calculated as follows: % Bound=(1−[mean MICultrafiltrate/mean MICserum]×100%

[1] = Serum protein binding estimated from MIC shift, serum vs serum ultrafiltrate (human); format: in vitro ADME; conditions: from mean MICs, broth microdilution, this study, read-out: % Bound (protein binding estimate) (converted)
From the text: (§2) Avid binding of oritavancin (ORI) to filtration and dialysis membranes renders most protein binding methodologies unsuitable. To control for any impact of serum components on bacterial growth and antibiotic activity, MIC shifts (from arithmetic drug dilutions) and area under the inhibitory curve (AUIC) shifts (from time-kill assays) were quantified in the presence of serum (SER) compared to SER ultrafiltrate (ULTRA; free of albumin) to estimate ORI binding to serum. In this manner, the extent of reduction in oritavancin activity in serum was related to its degree of serum protein binding. The method was benchmarked using daptomycin and ceftriaxone (Lee et al., Antimicrob Agents Chemother. 35:2505-2508 (1991); Schmidt et al., Antimicrob Agents Chemother. 52:3994-4000 (2008); Yuk et al., Clin Pharmacokinet. 17:223-235 (1989); McKay et al., Evaluation of oritavancin activity in vitro in the presence of human and mouse serum, abstr P1854. Abstr. 19th European Congress of Clinical Microbiology and Infectious Diseases. European Society of Clinical Microbiology and Infectious Diseases, Basel, Switzerland, May 16, 2009).
as §1
(§3) Arithmetic MICs: Broth microdilution MIC assays with Staphylococcus aureus ATCC 29213 were based on CLSI guidelines (Clinical and Laboratory Standards Institute, 2009, CLSI document M7-A7). Growth media were 95% serum:5% CAMHB and 95% serum ultrafiltrate:5% CAMHB. […] Percent binding in serum was calculated as follows: % Bound=(1−[mean MICultrafiltrate/mean MICserum]×100%

[2] = Serum protein binding estimated from MIC shift, serum vs serum ultrafiltrate (mouse); format: in vitro ADME; conditions: mouse serum; from mean MICs, broth microdilution; this study; read-out: % Bound (protein binding estimate) (converted)
From the text: as §2, §1, §3

[3] = Serum protein binding estimated from MIC shift, serum vs serum ultrafiltrate (rat); format: in vitro ADME; conditions: from mean MICs, broth microdilution, this study, read-out: % Bound (protein binding estimate) (converted)
From the text: as §2, §1, §3

[4] = Serum protein binding estimated from MIC shift, serum vs serum ultrafiltrate (dog); format: in vitro ADME; conditions: beagle dog serum; from mean MICs, broth microdilution; this study; read-out: % Bound (protein binding estimate) (converted)
From the text: as §2, §1, §3

[5] = Serum protein binding from time-kill AUIC shift, serum vs serum ultrafiltrate (human); format: in vitro ADME; conditions: pooled human serum compared with serum ultrafiltrate, read-out: Protein binding from area under the bacterial kill curves (converted)
From the text: as §2, §1
(§4) AUIC studies: Time-kill studies were performed using S. aureus ATCC 29213 at a final inoculum of 1×10^6 CFU/mL in 95% serum:5% CAMHB and in 95% serum ultrafiltrate:5% CAMHB. […] The AUIC was calculated using GraphPad Prism software. Percent binding in serum was calculated as follows: % Bound=(1−[AUICultrafiltrate/AUICserum]×100%

[6] = Serum protein binding from time-kill AUIC shift, serum vs serum ultrafiltrate (mouse); format: in vitro ADME; conditions: pooled mouse serum compared with serum ultrafiltrate, read-out: Protein binding from area under the bacterial kill curves (converted)
From the text: as §2, §1, §4

[7] = Serum protein binding from MIC shift, summary across species; format: in vitro ADME, human, mouse, rat, dog; conditions: beagle (dog); human, mouse, rat, dog serum; MIC shift; read-out: Mean serum protein binding, range for the four species tested
From the text: as §2, §1, §3

serum protein = test: as above; format: in vitro ADME, human, mouse, rat, dog; conditions: cross-species comparative study and concordant data
From the text: as §2, §1, §3

[8] = Protein binding estimates from time kill-based assays, summary; format: in vitro ADME; conditions: human, mouse, pooled serum compared with serum ultrafiltrate; this study; summary value
From the text: Avid binding of oritavancin (ORI) to filtration and dialysis membranes renders most protein binding methodologies unsuitable. To control for any impact of serum components on bacterial growth and antibiotic activity, MIC shifts (from arithmetic drug dilutions) and area under the inhibitory curve (AUIC) shifts (from time-kill assays) were quantified in the presence of serum (SER) compared to SER ultrafiltrate (ULTRA; free of albumin) to estimate ORI binding to serum. In this manner, the extent of reduction in oritavancin activity in serum was related to its degree of serum protein binding. […]
as §4

human plasma [9] = conditions: broth microdilution, various concentrations, Zhanel et al. 1998; cited from earlier work
human plasma [10] = conditions: DCC adsorption, 1-91 μg/ml, Rowe and Brown 2001; cited from earlier work
human serum = conditions: broth microdilution, various concentrations, Craig, unpublished; cited from earlier work
Albumin = Albumin (Homo sapiens, UniProt P02768); conditions: cantilever nanosensor, 0.2 μg/ml, McKendry, unpublished; cited from earlier work
mouse serum = conditions: broth microdilution, various concentrations, Craig, unpublished; cited from earlier work
rat plasma = conditions: broth microdilution, various concentrations, cited from earlier work
[11] = system: exponentially-growing S. aureus (MSSA, MRSA, VRSA); conditions: within 15 minutes to 2 hours; against MSSA, MRSA, and VRSA; McKay et al. 2009; cited from earlier work

Sequence of Albumin (P02768 25-609): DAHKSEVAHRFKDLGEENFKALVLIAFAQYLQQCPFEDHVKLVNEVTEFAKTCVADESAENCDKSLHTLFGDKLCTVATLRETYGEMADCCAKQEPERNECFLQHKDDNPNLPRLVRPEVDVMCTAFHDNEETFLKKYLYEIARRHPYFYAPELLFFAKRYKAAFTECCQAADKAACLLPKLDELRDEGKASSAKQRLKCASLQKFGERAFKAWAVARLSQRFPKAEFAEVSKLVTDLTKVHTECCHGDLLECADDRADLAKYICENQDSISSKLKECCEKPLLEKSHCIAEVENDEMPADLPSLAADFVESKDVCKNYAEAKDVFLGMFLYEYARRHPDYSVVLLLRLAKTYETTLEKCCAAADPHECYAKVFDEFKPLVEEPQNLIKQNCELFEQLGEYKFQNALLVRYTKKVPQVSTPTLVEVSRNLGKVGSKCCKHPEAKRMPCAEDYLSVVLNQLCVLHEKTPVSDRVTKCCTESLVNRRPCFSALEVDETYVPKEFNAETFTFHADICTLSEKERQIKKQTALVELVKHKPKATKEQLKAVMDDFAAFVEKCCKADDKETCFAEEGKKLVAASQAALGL

CN[C@H](CC(C)C)C(=O)N[C@H]1C(=O)N[C@@H](CC(N)=O)C(=O)N[C@H]2C(=O)N[C@H]3C(=O)N[C@H](C(=O)N[C@H](C(=O)O)c4cc(O)cc(O)c4-c4cc3ccc4O)[C@H](O[C@H]3C[C@](C)(N)[C@@H](O)[C@H](C)O3)c3ccc(c(Cl)c3)Oc3cc2cc(c3O[C@@H]2O[C@H](CO)[C@@H](O)[C@H](O)[C@H]2O[C@H]2C[C@](C)(NCc3ccc(-c4ccc(Cl)cc4)cc3)[C@@H](O)[C@H](C)O2)Oc2ccc(cc2Cl)[C@H]1O [Oritavancin, N-(4-(4-chlorophenyl)benzyl)A82846B]
MIC (S. aureus ATCC 29213; ATCC29213, read-out: MIC, CAMHB, mean, cation-adjusted Mueller-Hinton broth, CLSI conditions, Dog): 0.08 µg/mL (≈ 0.0446 µM)
MIC (S. aureus ATCC 29213; ATCC29213, read-out: MIC, CAMHB, mean, cation-adjusted Mueller-Hinton broth, CLSI conditions, Human): 0.084 µg/mL (≈ 0.0468 µM)
MIC (S. aureus ATCC 29213; ATCC29213, read-out: MIC, CAMHB, mean, cation-adjusted Mueller-Hinton broth, CLSI conditions, Mouse): 0.105 µg/mL (≈ 0.0586 µM)
MIC (S. aureus ATCC 29213; ATCC29213, read-out: MIC, CAMHB, mean, cation-adjusted Mueller-Hinton broth, CLSI conditions, Rat): 0.086 µg/mL (≈ 0.048 µM)
MIC (S. aureus ATCC 29213; ATCC29213, read-out: MIC, Serum, mean, 95% dog serum + 5% CAMHB): 0.475 µg/mL
MIC (S. aureus ATCC 29213; ATCC29213, read-out: MIC, Serum, mean, 95% human serum + 5% CAMHB): 0.775 µg/mL
MIC (S. aureus ATCC 29213; ATCC29213, read-out: MIC, Serum, mean, 95% mouse serum + 5% CAMHB): 0.538 µg/mL
MIC (S. aureus ATCC 29213; ATCC29213, read-out: MIC, Serum, mean, 95% rat serum + 5% CAMHB): 0.313 µg/mL
MIC (S. aureus ATCC 29213; ATCC29213, read-out: MIC, Ultrafiltrate, mean, 95% dog serum ultrafiltrate + 5% CAMHB): 0.061 µg/mL
MIC (S. aureus ATCC 29213; ATCC29213, read-out: MIC, Ultrafiltrate, mean, 95% human serum ultrafiltrate + 5% CAMHB): 0.14 µg/mL
MIC (S. aureus ATCC 29213; ATCC29213, read-out: MIC, Ultrafiltrate, mean, 95% mouse serum ultrafiltrate + 5% CAMHB): 0.079 µg/mL
MIC (S. aureus ATCC 29213; ATCC29213, read-out: MIC, Ultrafiltrate, mean, 95% rat serum ultrafiltrate + 5% CAMHB): 0.055 µg/mL
Mean Fold MIC Increase (S. aureus ATCC 29213; mean MIC in 95% dog serum / mean MIC in 95% dog serum ultrafiltrate): 7.8 fold
Mean Fold MIC Increase (S. aureus ATCC 29213; mean MIC in 95% human serum / mean MIC in 95% human serum ultrafiltrate): 5.5 fold
Mean Fold MIC Increase (S. aureus ATCC 29213; mean MIC in 95% mouse serum / mean MIC in 95% mouse serum ultrafiltrate): 6.8 fold
Mean Fold MIC Increase (S. aureus ATCC 29213; mean MIC in 95% rat serum / mean MIC in 95% rat serum ultrafiltrate): 5.7 fold
fraction unbound [1]: 0.181
fraction unbound [2]: 0.147
fraction unbound [3]: 0.176
fraction unbound [4]: 0.129
fraction unbound at 0.5 μg/ml ([5]; 0.5 μg/ml oritavancin): 0.326
fraction unbound at 1 μg/ml ([5]; 1 μg/ml oritavancin): 0.361
fraction unbound at 2 μg/ml ([5]; 2 μg/ml oritavancin): 0.383
fraction unbound at 0.5 μg/ml ([6]; 0.5 μg/ml oritavancin): 0.335
fraction unbound at 1 μg/ml ([6]; 1 μg/ml oritavancin): 0.317
fraction unbound at 2 μg/ml ([6]; 2 μg/ml oritavancin): 0.312
fraction unbound [7]: 0.129 to 0.181
Bound to serum protein, overall conclusion across species (serum protein): approximately 85%
fraction unbound [8]: ~0.35
Protein Binding (human plasma [9]): 87.5%
Protein Binding (human plasma [10]): 85.7-89.9%
Protein Binding (human serum): 79.6%
Protein Binding (Albumin): 79 ± 0.2%
Protein Binding (mouse serum): 85.2%
Protein Binding (rat plasma; Zhanel et al. 1998, listed as oritavancin): greater than 80%
Protein Binding (rat plasma; Zhanel et al. 1998): >80%
Bactericidal activity, log reduction [11]: ≥ 3 log
